Test results from ChEMBL document CHEMBL1127277, “Synthesis and in vitro cytotoxicity of 1,3-dioxolane-2-(2-ethanamine)-2-methanamine platinum(II) complexes” (Bioorg Med Chem Lett, 1994).

What was measured:
[1] = test system: L1210; assay: Ratio of the cytotoxicity against cisplatin resistance L1210 to parent (sensitive) cell lines; type: functional, cell-based
[2] = test system: L1210; assay: In vitro cytotoxicity against cisplatin resistance L1210 murine leukemia cell line; type: functional, cell-based, Mus musculus
[3] = test system: L1210; assay: In vitro cytotoxicity against cisplatin sensitive L1210 murine leukemia cell line; type: functional, cell-based, Mus musculus
[4] = test system: PC-9; assay: Cytotoxicity against human non-small cell lung cancer cell line PC-9 in MTT assay; type: functional, cell-based
[5] = test system: PC-14; assay: Cytotoxicity against human non-small cell lung cancer cell line PC-14 in MTT assay; type: functional, cell-based
[6] = test system: SNU1; assay: Cytotoxicity against human stomach cancer cell line SNU-1 in MTT assay; type: functional, cell-based
[7] = test system: SNU-16; assay: Cytotoxicity against human stomach cancer cell line SNU-16 in MTT assay; type: functional, cell-based
[8] = test system: SNU-5; assay: Cytotoxicity against human stomach cancer cell line SNU-5 in MTT assay; type: functional, cell-based

Row | Sequence | Ratio [1] | IC50 [2] | IC50 [3] | IC50 [4] | IC50 [5] | IC50 [6] | IC50 [7] | IC50 [8]
1 | CARBOPLATIN [listing 1 of 2 here] | 24.1 | – | – | – | – | – | – | –
2 | CISPLATIN [listing 1 of 2 here] | 3.24 | – | – | – | – | – | – | –
3 | CISPLATIN [listing 2 of 2 here] | – | 3.27 µM | 0.1 µM | 1 µM | 1.33 µM | 2.67 µM | 5 µM | 1 µM
4 | CARBOPLATIN [listing 2 of 2 here] | – | 44.2 µM | 1.83 µM | 21.8 µM | 15.6 µM | 20.1 µM | 13.7 µM | 9.16 µM
